The record followed here is PubChem BioAssay (NCI).

The structures appear in SMILES notation.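 Cells were grown in 96-well plates and exposed to each compound for 48 hours at five concentrations; endpoints were interpolated linearly between bracketing concentrations, or set to the highest concentration if not reached. Abbreviation: GI50, concentration required for 50% inhibition of growth. TGI marks complete inhibition of growth.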

Test systems include K-562 leukemia; UACC-62 melanoma; SK-OV-3 ovarian; SW-620 colon; M14 melanoma; KM12 colon; ACHN renal; OVCAR-5 ovarian; LOX IMVI melanoma; NCI-H226 lung.
Common to all, as to assay: NCI tumour cell line growth inhibition, 48 h

Consider `CN(C)c1ccc(-c2c(C#N)c(S)n(NS(=O)(=O)c3ccccc3)c(=O)c2C#N)cc1`, for which the TGI in the experiment with K-562 leukemia is above 100 µM; in the experiment on UACC-62 melanoma, above 100 µM; in the experiment on SK-OV-3 ovarian, above 100 µM; with SW-620 colon it was above 100 µM; in the experiment with M14 melanoma it was above 100 µM; in the experiment with KM12 colon it was 47.7 µM. Moreover, the TGI in the experiment with ACHN renal, in the experiment on OVCAR-5 ovarian and in the experiment on LOX IMVI melanoma was above 100 µM in each case.

For the compound `COc1ccc(CC(CO)NC(=O)OCc2ccccc2)cc1Oc1ccc(CC(CO)NC(=O)OCc2ccccc2)cc1` (configuration not stated), the TGI in the experiment with UACC-62 melanoma was 29.5 µM; with SK-OV-3 ovarian, 28.8 µM; with SW-620 colon, above 100 µM; with M14 melanoma it was 23.3 µM; in the experiment with KM12 colon, 26.9 µM; in the experiment on OVCAR-5 ovarian, 30.9 µM.

For the compound `CCOP(=O)(OCC)C1C(CO)OC(n2ccc(=O)[nH]c2=O)C1O` (configuration not stated), the TGI with K-562 leukemia, in the experiment with UACC-62 melanoma, in the experiment with NCI-H226 lung, in the experiment on SW-620 colon, with M14 melanoma and in the experiment on KM12 colon was above 100 µM throughout. The TGI in the experiment with ACHN renal and with LOX IMVI melanoma was above 100 µM each time.

Turning to `COc1ccc(/C(=N/O)c2ccccc2-c2nc3ccccc3c(=O)n2-c2ccc(S(=O)(=O)Nc3ncccn3)cc2)cc1C`, the TGI with K-562 leukemia is 21.6 µM; in the experiment with UACC-62 melanoma, 19.9 µM; in the experiment with SK-OV-3 ovarian it was 20.8 µM; in the experiment with SW-620 colon, above 31.6 µM; with M14 melanoma, above 31.6 µM; in the experiment on KM12 colon, above 31.6 µM. Besides, the TGI in the experiment with ACHN renal was 25.1 µM; in the experiment on OVCAR-5 ovarian, above 31.6 µM.

For `CCCCCCCCCC[C@H](O)[C@H]1CC[C@H]([C@H]2CC[C@H]([C@H](O)CC[C@H](O)CCCCCCC[C@@H](O)CC3=C[C@H](C)OC3=O)O2)O1`, the TGI with K-562 leukemia is 67.8 µM; in the experiment with NCI-H226 lung it was above 100 µM; in the experiment with SW-620 colon it was above 100 µM; in the experiment with M14 melanoma, above 100 µM; with KM12 colon it was above 100 µM; in the experiment on ACHN renal, above 100 µM. Besides, the TGI in the experiment on OVCAR-5 ovarian and in the experiment with LOX IMVI melanoma was above 100 µM throughout. Also, the GI50 in the experiment on NCI-H226 lung is above 100 µM; in the experiment with SW-620 colon it was above 100 µM; with KM12 colon, 38.1 µM; with ACHN renal it was 10 µM; in the experiment with OVCAR-5 ovarian, above 100 µM; in the experiment on LOX IMVI melanoma, 1.26 µM.

As to `O=C(CP(=O)(O)O)c1cccs1`, the TGI with K-562 leukemia, with UACC-62 melanoma, in the experiment on SK-OV-3 ovarian, with SW-620 colon, in the experiment on M14 melanoma and with KM12 colon was above 100 µM in each case. Also, the TGI in the experiment on ACHN renal, in the experiment on OVCAR-5 ovarian and with LOX IMVI melanoma was above 100 µM each time.

For `CCC[C@H]1C(=O)N=C(N)N1C(=O)OCc1ccccc1`, the TGI in the experiment with K-562 leukemia, in the experiment with UACC-62 melanoma, with NCI-H226 lung, in the experiment with SW-620 colon, with KM12 colon and with ACHN renal was above 100 µM throughout. Besides, the TGI in the experiment with OVCAR-5 ovarian and in the experiment with LOX IMVI melanoma was above 100 µM in each case.

For `CC(=O)N/N=C1/NN(C(C)=O)C2(S1)C(=O)Nc1ccc(Br)cc12` (configuration not stated), the TGI in the experiment with K-562 leukemia, in the experiment on UACC-62 melanoma, with NCI-H226 lung, in the experiment on M14 melanoma, with KM12 colon and in the experiment with ACHN renal was above 100 µM each time. The TGI in the experiment on OVCAR-5 ovarian and with LOX IMVI melanoma was above 100 µM throughout.

Turning to `COc1ccc(N[C@H](CSc2ccc(C)cc2)c2ccc(F)cc2)cc1`, the TGI in the experiment with K-562 leukemia, in the experiment with UACC-62 melanoma, in the experiment on SK-OV-3 ovarian, in the experiment with SW-620 colon, in the experiment on M14 melanoma and in the experiment on KM12 colon was above 100 µM each time. In addition, the TGI in the experiment on ACHN renal, in the experiment on OVCAR-5 ovarian and with LOX IMVI melanoma was above 100 µM throughout.

In the case of `COc1cc(/C=C2\C(=O)N(C(=O)Cc3ccccc3)N=C2C)ccc1O`, the TGI in the experiment with K-562 leukemia, in the experiment with NCI-H226 lung, in the experiment with SW-620 colon, with M14 melanoma, in the experiment on KM12 colon and in the experiment with ACHN renal was above 100 µM throughout. The TGI in the experiment on OVCAR-5 ovarian and in the experiment with LOX IMVI melanoma was above 100 µM throughout.

Consider `CCOC1CC(=O)c2c(Br)sc(Br)c21` (configuration not stated), for which the TGI in the experiment with K-562 leukemia stood at 41.5 µM; in the experiment on UACC-62 melanoma, 35.1 µM; in the experiment with SK-OV-3 ovarian, 30.4 µM; with SW-620 colon it was 47.1 µM; with M14 melanoma, 36.2 µM; in the experiment with KM12 colon, 37.2 µM. Besides, the TGI with ACHN renal amounted to 36.7 µM; in the experiment on OVCAR-5 ovarian, 45.3 µM; in the experiment on LOX IMVI melanoma, 42.2 µM.

Consider `CC(=O)NS(=O)(=O)c1ccc(NC(=O)c2c3ccccc3nc3ccccc23)cc1`, for which the TGI in the experiment on K-562 leukemia, with UACC-62 melanoma, in the experiment with SK-OV-3 ovarian, in the experiment on SW-620 colon, in the experiment with M14 melanoma and in the experiment with KM12 colon was above 100 µM throughout. Besides, the TGI in the experiment with ACHN renal, in the experiment on OVCAR-5 ovarian and with LOX IMVI melanoma was above 100 µM in each case.

On to `COc1ccc(N2C(=O)c3c4c(c5c([nH]c6ncccc65)c3C2=O)CCC(C(C)(C)C)C4)cc1` (configuration not stated), for which the TGI in the experiment with UACC-62 melanoma, in the experiment with SK-OV-3 ovarian, with NCI-H226 lung, in the experiment with SW-620 colon, with M14 melanoma and with KM12 colon was above 100 µM each time. In the experiment with ACHN renal, the TGI was above 100 µM.

As for `CCNC(=O)Nc1ccccn1`, the TGI in the experiment with K-562 leukemia, in the experiment on UACC-62 melanoma, in the experiment on SK-OV-3 ovarian, in the experiment with NCI-H226 lung, in the experiment with SW-620 colon and in the experiment on M14 melanoma was above 100 µM each time. The TGI in the experiment on KM12 colon, in the experiment on ACHN renal and with OVCAR-5 ovarian was above 100 µM each time.

Take `CCN(CC)CCOC(NC(C)=O)(c1ccccc1)c1ccccc1`: the TGI in the experiment on UACC-62 melanoma, in the experiment on SK-OV-3 ovarian, in the experiment with NCI-H226 lung, with SW-620 colon, in the experiment on M14 melanoma and in the experiment on KM12 colon was above 100 µM each time. Also, the TGI in the experiment on ACHN renal and in the experiment on OVCAR-5 ovarian was above 100 µM in each case.

As for `Cc1cc2c(C)cc(=O)[nH]c2cc1N`, the TGI in the experiment with K-562 leukemia, with UACC-62 melanoma, in the experiment on NCI-H226 lung, in the experiment on SW-620 colon, in the experiment with M14 melanoma and with KM12 colon was above 100 µM each time. The TGI in the experiment with ACHN renal, in the experiment on OVCAR-5 ovarian and in the experiment on LOX IMVI melanoma was above 100 µM each time.

As to `O=C(O)C1CC(c2ccc(F)cc2)=Nc2ccc(F)cc2S1` (configuration not stated), the TGI in the experiment with K-562 leukemia, in the experiment on UACC-62 melanoma, in the experiment on SK-OV-3 ovarian, in the experiment with NCI-H226 lung, with SW-620 colon and in the experiment with M14 melanoma was above 100 µM each time. The TGI in the experiment on KM12 colon, in the experiment on ACHN renal and with OVCAR-5 ovarian was above 100 µM in each case.

In the case of `Nn1c(CCCCCCCCc2nnc(COc3c(O)ccc4ccccc34)n2N)nnc1COc1c(O)ccc2ccccc12`, the TGI in the experiment with K-562 leukemia, with UACC-62 melanoma, in the experiment with SK-OV-3 ovarian, in the experiment with NCI-H226 lung, with SW-620 colon and in the experiment with M14 melanoma was above 100 µM throughout. Moreover, the TGI in the experiment with KM12 colon, with ACHN renal and with OVCAR-5 ovarian was above 100 µM throughout.

As for `CCC1=CCC23C(=O)C=CC(=O)C2(C1)C(=O)c1cccc(OC)c1C3=O` (configuration not stated), the TGI in the experiment with K-562 leukemia is 72.4 µM; in the experiment on UACC-62 melanoma it was 37.2 µM; in the experiment with NCI-H226 lung, 67.2 µM; with SW-620 colon, 34 µM; with M14 melanoma, 30.4 µM; in the experiment with KM12 colon it was 43.6 µM. Besides, the TGI was determined as 27.4 µM in the experiment with ACHN renal, 31.8 µM in the experiment on OVCAR-5 ovarian and 29.9 µM in the experiment on LOX IMVI melanoma.

With `CC(C)(C)C1=Cc2cc3cc(C(C)(C)C)[nH]c(=O)c3cc2S(=O)(=O)N1`, the TGI in the experiment on K-562 leukemia was above 100 µM; in the experiment with UACC-62 melanoma, 42 µM; in the experiment with SK-OV-3 ovarian, above 100 µM; in the experiment on NCI-H226 lung, 47.7 µM; in the experiment with SW-620 colon, 44.8 µM; in the experiment on M14 melanoma it was 29.7 µM. Further, the values for the TGI with KM12 colon, in the experiment with ACHN renal and in the experiment on OVCAR-5 ovarian were 94.6 µM, 89.3 µM and 92.5 µM, respectively.

With `COc1ccc(Nc2nc3ccc(C(F)(F)F)cc3nc2C(=O)O)cc1OC`, the TGI in the experiment with K-562 leukemia was above 100 µM; in the experiment with UACC-62 melanoma, above 100 µM; in the experiment with NCI-H226 lung it was above 100 µM; in the experiment on SW-620 colon, above 100 µM; in the experiment with KM12 colon it was 33.7 µM; in the experiment with ACHN renal it was above 100 µM. The TGI in the experiment with OVCAR-5 ovarian and in the experiment with LOX IMVI melanoma was above 100 µM in each case.

As for `OC[C@@H](O)[C@H]1NC[C@@H](O)[C@H]1O`, the TGI in the experiment on UACC-62 melanoma, in the experiment on SK-OV-3 ovarian, with SW-620 colon, in the experiment on M14 melanoma, in the experiment with KM12 colon and with ACHN renal was above 100 µM in each case. Moreover, the TGI in the experiment on OVCAR-5 ovarian is above 100 µM.

For the compound `COC(=O)c1c(C)cccc1/C=C1/Cc2c(C)cccc2C1=O`, the TGI in the experiment on UACC-62 melanoma, with SK-OV-3 ovarian, in the experiment on NCI-H226 lung, with SW-620 colon, in the experiment on KM12 colon and with ACHN renal was above 100 µM in each case. In addition, the TGI in the experiment with OVCAR-5 ovarian and in the experiment on LOX IMVI melanoma was above 100 µM in each case.
